Legend:
[1] = tested on: TERC 3′ end processing in HEK 293 with stable shRNA-mediated knockdown of PARN; test: TERC 3′ end processing (3′ RACE) in PARN-deficient HEK 293 cells; assay type: cell-based; details: PARN-deficient human cells (HEK 293, PARN shRNA knockdown), treated for 7 days; 10 µM and 100 μM; listed as entry 1 in table 1
Protocol: The expected amplicons representing mature TERC versus extended forms are indicated (arrows). […] HEK 293 with stable shRNA-mediated knockdown of PARN were treated for 7 days with the Table 5, entry 1 compound.

PAPD5 [2] = target: T1, PAPD5 (Homo sapiens, UniProt Q8NDF8); test: High-throughput luminescence (KinaseGlo) RNA polyadenylation assay, ATP utilization by recombinant PAPD5; assay type: biochemical; details: for Fold-change determined at compound concentration 33 μM: 33 μM compound; for Fold-change determined at compound concentration 100 μM: higher = higher inhibition
T1 construct: made in house
Procedure, shortened: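 Recombinant PAPD5 polyadenylates an oligonucleotide substrate using ATP, and remaining ATP is read by KinaseGlo luciferase luminescence. Compound was incubated for 2 h at room temperature, then with luciferase for 10 min.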

PAPD5 [3] = target: T1, PAPD5; test: PAPD5 oligonucleotide extension assay (gel), compound dose response vs ATP; assay type: biochemical; details: recombinant PAPD5 in vitro
Protocol: Candidate inhibitors are assayed at a range of concentrations in functional assays entailing extension of fluorescently-labelled RNA oligonucleotide substrates in the presence of PAPD5, followed by gel electrophoresis. […] In FIG. 5, a 20-mer 5′-fluorescently labelled RNA oligonucleotide was incubated with recombinant WT or mutant PAPD5 for 1 hour in the presence of varying concentrations of ATP, and products were visualized by polyacrylamide gel electrophoresis. It is expected that wildtype (WT) PAPD5 with PAPD5 inhibitors can have similar results. In fact, 4 compounds were selected to test the validation assay. The results were shown in FIG. 8, and were consistent with the expected results.
Each compound tested in the assay was tested at 0 μM, 5 μM, 10 μM, 50 μM, and 100 μM. At each concentration, each compound was tested at 0 μM, 10 μM, 100 μM, and 1000 μM concentration of ATP.

PARN exonuclease = target: T2, PARN exonuclease (Homo sapiens, UniProt O95453); test: Counter-screen for inhibition of PARN exonuclease; assay type: biochemical
T2 sequence (O95453 1-639): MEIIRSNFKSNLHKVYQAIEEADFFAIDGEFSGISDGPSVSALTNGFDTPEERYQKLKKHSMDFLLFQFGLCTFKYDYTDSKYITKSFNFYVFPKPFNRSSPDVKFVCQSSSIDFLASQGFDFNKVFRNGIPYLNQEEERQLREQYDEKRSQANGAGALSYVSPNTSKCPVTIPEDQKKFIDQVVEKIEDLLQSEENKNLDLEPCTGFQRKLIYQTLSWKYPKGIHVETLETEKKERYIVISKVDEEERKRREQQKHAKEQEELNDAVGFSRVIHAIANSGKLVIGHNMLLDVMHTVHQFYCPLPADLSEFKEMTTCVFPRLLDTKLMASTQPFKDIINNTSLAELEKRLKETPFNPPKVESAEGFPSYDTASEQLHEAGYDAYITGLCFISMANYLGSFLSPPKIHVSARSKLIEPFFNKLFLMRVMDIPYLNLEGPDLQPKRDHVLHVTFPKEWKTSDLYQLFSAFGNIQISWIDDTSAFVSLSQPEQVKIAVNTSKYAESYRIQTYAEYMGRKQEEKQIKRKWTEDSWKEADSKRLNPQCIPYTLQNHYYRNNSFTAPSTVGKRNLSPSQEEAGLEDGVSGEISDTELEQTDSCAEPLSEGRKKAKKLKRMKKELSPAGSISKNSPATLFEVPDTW
Text: Although PARN and PAPD5 have opposing functions in TERC maturation and stabilization, PARN and PAPD5 are structurally related, and so molecules that inhibit one enzyme may inhibit the other.

[4] = Table 4 (entries of Table 5), ratio of luminescence with inhibitor to DMSO
[5] = Table 4 (entries of Table 5), 100 μM compound, ratio of luminescence with inhibitor to DMSO

T1 sequence (Q8NDF8 68-698 isoform Q8NDF8-5): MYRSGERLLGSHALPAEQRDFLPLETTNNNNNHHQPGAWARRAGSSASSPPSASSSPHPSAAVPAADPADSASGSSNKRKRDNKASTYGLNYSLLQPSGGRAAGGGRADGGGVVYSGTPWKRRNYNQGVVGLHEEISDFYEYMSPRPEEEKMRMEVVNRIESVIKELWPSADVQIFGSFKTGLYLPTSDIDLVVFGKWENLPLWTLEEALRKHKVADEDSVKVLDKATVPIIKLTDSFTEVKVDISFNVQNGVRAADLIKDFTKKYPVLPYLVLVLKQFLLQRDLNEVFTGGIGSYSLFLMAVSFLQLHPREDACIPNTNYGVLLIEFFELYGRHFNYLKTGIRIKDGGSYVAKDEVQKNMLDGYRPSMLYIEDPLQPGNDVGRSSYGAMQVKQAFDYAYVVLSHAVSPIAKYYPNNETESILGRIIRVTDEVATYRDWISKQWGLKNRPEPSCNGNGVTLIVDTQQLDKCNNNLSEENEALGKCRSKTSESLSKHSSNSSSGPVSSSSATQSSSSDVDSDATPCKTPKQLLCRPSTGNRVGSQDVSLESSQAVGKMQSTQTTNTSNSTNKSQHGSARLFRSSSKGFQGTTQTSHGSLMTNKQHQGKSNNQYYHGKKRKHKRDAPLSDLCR

Structure (SMILES): CCOC(=O)c1cnc2ccc(OC(F)(F)F)cc2c1Nc1ccccc1C(=O)O [Entry 1, 2-[[3-ethoxycarbonyl-6-(trifluoromethoxy)quinolin-4-yl]amino]benzoic acid]
- restoration of TERC 3′ end processing / maturation (in words) [1]: restoration of TERC maturation that is similar to that achieved by PAPD5 knockdown

Structure (SMILES): N#C/C(=C\c1ccc(-c2ccc(C(=O)O)cc2)o1)C(=O)Nc1ccccc1C(=O)O [Entry 244, 2-[[(E)-3-[5-(4-carboxyphenyl)furan-2-yl]-2-cyanoprop-2-enoyl]amino]benzoic acid]
- Fold-change determined at compound concentration 10 μM (PAPD5 [2]; Table 4 (entries of Table 5), 10 μM compound, ratio of luminescence with inhibitor to DMSO): 1.32
- Fold-change determined at compound concentration 33 μM (PAPD5 [2]; [4]): 1.737
- Fold-change determined at compound concentration 100 μM (PAPD5 [2]; [5]): 2.572

Structure (SMILES): N#C/C(=C\c1ccc(-c2ccc(Cl)c(C(=O)O)c2)o1)c1nc2ccccc2[nH]1 [Entry 245, 5-[5-[(E)-2-(1H-benzimidazol-2-yl)-2-cyanoethenyl]furan-2-yl]-2-chlorobenzoic acid]
- Fold-change determined at compound concentration 33 μM (PAPD5 [2]; [4]): 1.236
- Fold-change determined at compound concentration 100 μM (PAPD5 [2]; [5]): 1.638

Structure (SMILES): C=CCNC(=O)c1sc(=S)n2c1[nH]c(=O)c1cc3c(cc12)OCO3 [N-allyl-5-oxo-1-thioxo-4,5-dihydro[1,3]dioxolo[4,5-g][1,3]thiazolo[3,4-a]quinazoline-3-carboxamide]
- fold change at 100 μM concentration in the assay (PAPD5 [2]; 100 μM compound): 3.1

Structure (SMILES): CCOC(=O)c1cnc2ccc(OC(F)(F)F)cc2c1Nc1ccccc1C(=O)O [entry 1 in Table 5, 2-[[3-ethoxycarbonyl-6-(trifluoromethoxy)quinolin-4-yl]amino]benzoic acid]
- inhibition of PAPD5 (in words) (PAPD5 [3]): inhibit PAPD5
- inhibition of PARN exonuclease (in words) (PARN exonuclease): do not inhibit PARN

Structure (SMILES): CCc1ccc2ncc(C(=O)c3ccc(C)c(C)c3)c(N3CCC(C(N)=O)CC3)c2c1 [entry 2 in Table 5, 1-[3-(3,4-dimethylbenzoyl)-6-ethylquinolin-4-yl]piperidine-4-carboxamide]
- inhibition of PAPD5 (in words) (PAPD5 [3]): inhibit PAPD5
- inhibition of PARN exonuclease (in words) (PARN exonuclease): do not inhibit PARN

From US12171755B2, “PAPD5 inhibitors and methods of use thereof” (Children's Medical Center Corporation, priority 2017, dated 2024)
